The target in this assay is T1, recombinant human mPGES-1 (Homo sapiens, UniProt O14684).
T1 construct: made in house; host or cells: Rosetta E. coli (microsomal/membrane fraction)
T1 sequence (O14684 1-152): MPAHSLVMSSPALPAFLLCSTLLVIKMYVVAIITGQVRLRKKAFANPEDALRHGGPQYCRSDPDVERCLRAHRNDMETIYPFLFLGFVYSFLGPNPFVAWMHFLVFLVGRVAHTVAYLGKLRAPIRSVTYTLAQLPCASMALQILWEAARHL
Nature of the assay: mPGES-1 inhibition, HTRF detection of PGE2. It counts as biochemical. As for the experimental part:
Microsomes from Rosetta E. coli bacteria expressing recombinant human mPGES-1 is dissolved in 0.1 M KPi pH 7.4 buffer containing 2.5 mM GSH. 50 μl of the enzyme is subsequently dispensed in a 384-well plate. 0.5 μl of the inhibitor dissolved in DMSO at is thereafter added to each well and incubated for 25 minutes at room temperature. Subsequently, 2 μl of PGH2 dissolved in an appropriate solvent is added to each well and after one minute the acidified stop solution containing FeCl2 is added. 4 μl of the total volume is transferred to a separate plate and diluted 750-fold in two separate steps before HTRF detection of PGE2.
The HTRf detection is performed by the use of a commercially available kit from CisBio essentially according to the manufacturer's protocol. Briefly, 10 μl of the diluted sample is transferred to a white 384-well plate. 5 μl of d2 and 5 μl Eu3+-Cryptate labeled anti-PGE2 is added to each well containing samples by the use of a Multidrop. The plate is covered with a plastic self-adhesive film, centrifuged at 1200 rpm for 1 minute and subsequently stored at +4° C. over night.
After over night incubation the fluorescence is measured by the use of an appropriate microplate reader. The fluorescence of europium cryptate, and d2 are measured using the following excitation and emission wavelength, europium cryptate: λmax^ex=307 nm, λmax^em=620 nm and d2: λmax^ex=620 nm, λmax^em=665 nm), respectively. The extent of the specific FRET is measured as a ratio of the emission intensity at 665 nm vs. that at 620 nm. A standard curve using synthetic PGE2 is used to quantify the amount of PGE2 in unknown samples.
A general note: In TR-FRET formats the signal depends on donor and acceptor labels being close together.

The record followed here is patent US8703796B2, “3H-imidazo [4, 5-B] pyridine-6-carboxamides as anti-inflammatory agents” (Boehringer Ingelheim International GmbH, priority 2008, dated 2014).

For the molecule `Cn1c(Nc2c(Cl)cccc2Cl)nc2cc(C(=O)Nc3ccc(Br)cc3)cnc21` [Example 463, N-(4-Bromophenyl)-2-(2,6-dichlorophenylamino)-3-methyl-3H-imidazo[4,5-b]pyridine-6-carboxamide], the inhibition (as a rule, the change of the read-out against control, counted positive when it falls) at 10 µM worked out at 97%. On the same count and under the same terms, for `Cn1c(Nc2c(Cl)ccc(Cl)c2F)nc2cc(C(=O)N[C@H]3CC[C@H](C(F)(F)F)CC3)c(OCC(F)F)nc21` [Example 787, 2-(3,6-Dichloro-2-fluoro-phenylamino)-5-(2,2-difluoro-ethoxy)-N-(trans-4-trifluoromethyl-cyclohexyl)-3-methyl-3H-imidazo[4,5-b]pyridine-6-carboxamide] the value was 98%.

In the case of `CC(C)[C@H]1CC[C@H](NC(=O)c2cnc3[nH]c(Nc4c(Cl)cccc4Cl)nc3c2)CC1` [Example 394, 2-(2,6-Dichlorophenylamino)-N-((1r,4r)-4-isopropylcyclohexyl)-3H-imidazo[4,5-b]pyridine-6-carboxamide], the inhibition at 10 µM turned out to be 100%. Turning to `O=C(Nc1ccc(Br)cc1)c1cc2nc(Nc3c(F)cccc3C(F)(F)F)[nH]c2nc1OCC(F)F` [Example 774, N-(4-Bromo-phenyl)-2-(2-fluoro-6-trifluoromethyl-phenylamino)-5-(2,2-difluoroethoxy)-3H-imidazo[4,5-b]pyridine-6-carboxamide], the inhibition at 1 µM amounted to 100%. Regarding `CN(C)CCOc1nc2[nH]c(Nc3c(Cl)cc(F)cc3Cl)nc2cc1C(=O)N[C@H]1CC[C@H](C(F)(F)F)CC1` [Example 864, 2-(2,6-Dichloro-4-fluoro-phenylamino)-5-(2-dimethylamino-ethoxy)-N-(trans-4-trifluoromethyl-cyclohexyl)-3H-imidazo[4,5-b]pyridine-6-carboxamide], the inhibition at 10 µM worked out at 91%. Take `O=C(NCc1ncccc1C(F)(F)F)c1cc2nc(Nc3c(Cl)cncc3Cl)[nH]c2nc1OCC(F)(F)F` [Example 855, 2-(3,5-Dichloro-pyridin-4-ylamino)-5-(2,2,2-trifluoro-ethoxy)-N-((3-trifluoromethyl-pyridin-2-yl)-methyl)-3H-imidazo[4,5-b]pyridine-6-carboxamide]: the inhibition at 10 µM came to 100%. As to `Cn1c(Nc2c(Cl)cncc2Cl)nc2cc(C(=O)NCc3ccccc3C(F)(F)F)c(OCC(F)F)nc21` [Example 839, 2-(3,5-Dichloro-pyridin-4-ylamino)-5-(2,2-difluoro-ethoxy)-N-(2-trifluoromethyl-benzyl)-3-methyl-3H-imidazo[4,5-b]pyridine-6-carboxamide], the inhibition at 10 µM stood at 98%. With `Cn1c(Nc2c(Cl)cncc2Cl)nc2cc(C(=O)N[C@H]3CC[C@H](C(F)(F)F)CC3)c(OCC(F)F)nc21` [Example 838, 2-(3,5-Dichloro-pyridin-4-ylamino)-5-(2,2-difluoro-ethoxy)-N-(trans-4-trifluoromethyl-cyclohexyl)-3-methyl-3H-imidazo[4,5-b]pyridine-6-carboxamide], the inhibition at 10 µM stood at 94%. `Cn1c(Nc2c(Cl)cc(F)cc2Cl)nc2cc(C(=O)NCC(F)(F)C(F)(F)C(F)(F)C(F)(F)F)c(OCC(F)F)nc21` [Example 872, 2-(2,6-Dichloro-4-fluoro-phenylamino)-5-(2,2-difluoro-ethoxy)-N-(2,2,3,3,4,4,5,5,5-nonafluoropentyl)-3-methyl-3H-imidazo[4,5-b]pyridine-6-carboxamide]: the inhibition at 10 µM came out at 100%. As to `O=C(N[C@H]1CC[C@H](C(F)(F)F)CC1)c1cc2nc(Nc3c(Cl)cccc3C(F)(F)F)[nH]c2nc1OCC(F)F` [Example 778, 2-(2-Chloro-6-trifluoromethyl-phenylamino)-5-(2,2-difluoro-ethoxy)-N-(trans-4-trifluoromethyl-cyclohexyl)-3H-imidazo[4,5-b]pyridine-6-carboxamide], the inhibition at 1 µM came out at 98%. For the molecule `O=C(N[C@H]1CC[C@H](C(F)(F)F)CC1)c1cc2nc(Nc3c(Cl)cc(F)cc3Cl)[nH]c2nc1OCC(F)(F)F` [Example 827, 2-(2,6-Dichloro-4-fluoro-phenylamino)-5-(2,2,2-trifluoro-ethoxy)-N-(trans-4-trifluoromethyl-cyclohexyl)-3H-imidazo[4,5-b]pyridine-6-carboxamide], the inhibition at 10 µM worked out at 100%.
